Source: ChEMBL document CHEMBL4483862, “Open-source discovery of chemical leads for next-generation chemoprotective antimalarials” (2018)

Tested on: Plasmodium berghei
Experiment: Luciferase/luciferin-expressing antifolate-resistant parasites were used to infect a culture of HepG2 cells that were pre-incubated with compounds. Infected hepatocytes emit light due to the luciferase reaction. Assay results are presented as the percent inhibition of light emission compared to control. […]
Assay type: functional
Conditions: sporozoite; for IC90: read-out: LUCIFERASE INFECTION ASSAY - IC90
[1] = read-out: LUCIFERASE INFECTION ASSAY - IC50

SMILES: COc1cc2c(cc1OC)CN(CCNc1ncnc3sccc13)CC2
- IC50 (HEPG2TOX_HILL_SLOPE 2.69, HEPG2TOX_R_SQUARED 0.552, PBLUC_HILL_SLOPE 1.83, PBLUC_R_SQUARED 0.419, read-out: LUCIFERASE INFECTION ASSAY - IC50): 3.93 µM
- IC90: > 10 µM

SMILES: O=C(Nc1nc(CN2CCCC2)cs1)c1ccc(-c2ccccc2)cc1
- IC50 (HEPG2TOX_HILL_SLOPE 2.9, HEPG2TOX_R_SQUARED 0.919, read-out: LUCIFERASE INFECTION ASSAY - IC50): > 10 µM
- IC90: > 10 µM

SMILES: Cc1cc(NC(=O)CCNC(C)c2ccc(CC(C)C)cc2)no1 (stereo unspecified)
- IC50 [1]: > 10 µM
- IC90: > 10 µM

SMILES: COc1cc(-c2cnc3cnc(-c4ccc(N5CCN(C)CC5)nc4)cn23)ccc1O
- IC50 (PBLUC_HILL_SLOPE 8.9, PBLUC_R_SQUARED 0.156, read-out: LUCIFERASE INFECTION ASSAY - IC50): 7.05 µM
- IC90: > 7.92 µM

SMILES: Nc1nc2c(C(=O)c3cccs3)nnn2c2ccc(Cl)cc12
- IC50 (FFLUC_HILL_SLOPE 1.53, FFLUC_R_SQUARED 0.767, PBLUC_HILL_SLOPE 0.914, PBLUC_R_SQUARED 0.801, read-out: LUCIFERASE INFECTION ASSAY - IC50): 0.0442 µM
- IC90: 0.489 µM

SMILES: COc1ccc(-c2cnc3cnc(-c4ccccc4C)cn23)cc1
- IC50 (HEPG2TOX_HILL_SLOPE 0.359, HEPG2TOX_R_SQUARED 0.561, PBLUC_HILL_SLOPE 8.88, PBLUC_R_SQUARED 0.713, read-out: LUCIFERASE INFECTION ASSAY - IC50): 0.0371 µM
- IC90: 0.0475 µM

SMILES: COC(OC)c1ccc(C#N)c(SCC(=O)c2ccc(Cl)cc2)n1
- IC50 [1]: > 9.1 µM
- IC90: > 9.1 µM

SMILES: NC(Cc1ccccc1)c1csc(Nc2ccc(-c3ccccc3)nn2)n1 (stereo unspecified)
- IC50 (PBLUC_HILL_SLOPE 170, PBLUC_R_SQUARED 0.669, read-out: LUCIFERASE INFECTION ASSAY - IC50): 5.74 µM
- IC90: 5.82 µM

SMILES: CC(C)NC(=O)N1CCCC(C(=O)Nc2nc3ccccc3[nH]2)C1 (stereo unspecified)
- IC50 (FFLUC_HILL_SLOPE 4.02, FFLUC_R_SQUARED 0.256, PBLUC_HILL_SLOPE 1.51, PBLUC_R_SQUARED 0.42, read-out: LUCIFERASE INFECTION ASSAY - IC50): 0.935 µM
- IC90: 4 µM

SMILES: COc1cc(NC(=O)Nc2ccc3nc(Cc4ccccc4)nn3c2)cc(OC)c1OC
- IC50 (PBLUC_HILL_SLOPE 20.6, PBLUC_R_SQUARED 0.32, read-out: LUCIFERASE INFECTION ASSAY - IC50): 3.87 µM
- IC90: 4.31 µM

SMILES: NC(=O)c1nc[nH]c1NC(=O)Cc1ccc(-c2ccccc2)cc1
- IC50 (PBLUC_HILL_SLOPE 1, PBLUC_R_SQUARED 0.17, read-out: LUCIFERASE INFECTION ASSAY - IC50): > 10 µM
- IC90: > 10 µM

SMILES: CCC1CCc2sc(C(=O)NCCc3ccccn3)cc2C1 (stereo unspecified)
- IC50 (PBLUC_HILL_SLOPE 5.05, PBLUC_R_SQUARED 0.237, read-out: LUCIFERASE INFECTION ASSAY - IC50): 7.77 µM
- IC90: > 10 µM

SMILES: O=C(Nc1ccc(F)cc1)c1ccc(CN2CCc3ccccc3C2)cc1
- IC50 [1]: > 9.16 µM
- IC90: > 9.16 µM

SMILES: Cn1ncc2c(N3CCN(CC(=O)Nc4nc(-c5c[nH]c6ccccc56)cs4)CC3)ncnc21
- IC50 (HEPG2TOX_HILL_SLOPE 3.32, HEPG2TOX_R_SQUARED 0.453, PBLUC_HILL_SLOPE 2.65, 8.86, PBLUC_R_SQUARED 0.123, 0.280, read-out: LUCIFERASE INFECTION ASSAY - IC50): 2.62 µM
- IC90: 4.22 µM

SMILES: CC(=O)NC(C)CCc1ccc(-c2csc(-c3ccc(NC(=O)C4CC4)cc3)n2)cc1 (stereo unspecified)
- IC50 (PBLUC_HILL_SLOPE 9.6, PBLUC_R_SQUARED 0.721, read-out: LUCIFERASE INFECTION ASSAY - IC50): 0.116 µM
- IC90: 0.146 µM

SMILES: O=[N+]([O-])c1ccc(N2CCc3ccccc32)cc1
- IC50 (HEPG2TOX_HILL_SLOPE 7.98, HEPG2TOX_R_SQUARED 0.901, PBLUC_HILL_SLOPE 21.8, PBLUC_R_SQUARED 0.45, read-out: LUCIFERASE INFECTION ASSAY - IC50): 13.3 µM
- IC90: > 13.7 µM

SMILES: CCOC(=O)c1sc(SCc2ccccc2)c(S(=O)(=O)C(C)C)c1N
- IC50 [1]: > 8.26 µM
- IC90: > 8.26 µM

SMILES: CN1c2ccccc2C(C)(C)C12C=Cc1c(c(Br)cc3oc4c(c13)CCCC4)O2 (stereo unspecified)
- IC50 (HEPG2TOX_HILL_SLOPE 0.555, HEPG2TOX_R_SQUARED 0.409, PBLUC_HILL_SLOPE 0.699, PBLUC_R_SQUARED 0.384, read-out: LUCIFERASE INFECTION ASSAY - IC50): 4.21 µM
- IC90: > 10 µM

SMILES: O=C(c1cnc(Nc2cccc(Cc3ccccc3)c2)[nH]1)c1ccccc1O
- IC50 (PBLUC_HILL_SLOPE 2.54, PBLUC_R_SQUARED 0.464, read-out: LUCIFERASE INFECTION ASSAY - IC50): 6.19 µM
- IC90: > 8.93 µM

SMILES: Cc1cccc(N2CCN(C(=O)c3ccc4[nH]c(C)c(C)c4c3)CC2)c1C
- IC50 (FFLUC_HILL_SLOPE 18.8, FFLUC_R_SQUARED 0.39, HEPG2TOX_HILL_SLOPE 1.29, HEPG2TOX_R_SQUARED 0.937, PBLUC_HILL_SLOPE 10.9, PBLUC_R_SQUARED 0.355, read-out: LUCIFERASE INFECTION ASSAY - IC50): 0.935 µM
- IC90: 1.14 µM

SMILES: C=c1ccccc1=C1NN=C(Sc2cnn(-c3ccc(C(F)(F)F)cn3)c(=O)c2Cl)N1CC
- IC50 (HEPG2TOX_HILL_SLOPE 11.7, 13.0, HEPG2TOX_R_SQUARED 0.881, 0.478, PBLUC_HILL_SLOPE 8.47, PBLUC_R_SQUARED 0.136, read-out: LUCIFERASE INFECTION ASSAY - IC50): 4.11 µM
- IC90: 5.32 µM

SMILES: CCS(=O)(=O)N1CCC(C(=O)Nc2nnc(-c3ccc(Cl)cc3)o2)(c2ccccc2)CC1
- IC50 (HEPG2TOX_HILL_SLOPE 1.78, 1.25, HEPG2TOX_R_SQUARED 0.428, 0.956, PBLUC_HILL_SLOPE 18.9, PBLUC_R_SQUARED 0.689, read-out: LUCIFERASE INFECTION ASSAY - IC50): 1.07 µM
- IC90: 1.21 µM

SMILES: Fc1cccc(F)c1NC(=S)Nc1cc(C(F)(F)F)cc(C(F)(F)F)c1
- IC50 [1]: > 8.24 µM
- IC90: > 8.24 µM

SMILES: CC(=O)Nc1ccc2c(COC(=O)C(CC(C)C)NC(=O)c3ccc(Cl)cc3)cc(=O)oc2c1 (stereo unspecified)
- IC50 (FFLUC_HILL_SLOPE 0.303, FFLUC_R_SQUARED 0.675, read-out: LUCIFERASE INFECTION ASSAY - IC50): > 10 µM
- IC90: > 10 µM

SMILES: CC(C)c1ccc(C(Nc2ccc3nnnn3n2)c2cccs2)cc1 (stereo unspecified)
- IC50 (HEPG2TOX_HILL_SLOPE 2.7, HEPG2TOX_R_SQUARED 0.805, PBLUC_HILL_SLOPE 2.3, PBLUC_R_SQUARED 0.604, read-out: LUCIFERASE INFECTION ASSAY - IC50): 2.14 µM
- IC90: 5.57 µM

SMILES: CCC(=O)c1cn(S(=O)(=O)c2ccc(C)cc2)c2ccccc12
- IC50 (HEPG2TOX_HILL_SLOPE 1.47, HEPG2TOX_R_SQUARED 0.948, PBLUC_HILL_SLOPE 16.3, PBLUC_R_SQUARED 0.746, read-out: LUCIFERASE INFECTION ASSAY - IC50): 2.9 µM
- IC90: 3.32 µM

SMILES: Cc1cc(Oc2ccc(C(F)(F)F)cc2N=CC(C#N)C#N)cc(C)c1Cl
- IC50 [1]: > 8.42 µM
- IC90: > 8.42 µM

SMILES: CCCNC(=O)c1c(NC(=O)c2cccc(Cl)c2Cl)nc2ccc(C)cn12
- IC50 [1]: > 8.14 µM
- IC90: > 8.14 µM

SMILES: CC(C)(C)NC(=S)N/N=C/c1ccnc(SCc2ccc(Cl)cc2)n1
- IC50 (PBLUC_HILL_SLOPE 1.91, PBLUC_R_SQUARED 0.389, read-out: LUCIFERASE INFECTION ASSAY - IC50): 5.71 µM
- IC90: > 8.38 µM

SMILES: O=C(COC(=O)c1cn(-c2ccccc2)nc1-c1cccs1)Nc1nnc(-c2ccccc2)o1
- IC50 [1]: > 10 µM
- IC90: > 10 µM

SMILES: CCN(CCNc1ncnc2sc(-c3ccccc3)cc12)c1cccc(C)c1
- IC50 (HEPG2TOX_HILL_SLOPE 2.04, HEPG2TOX_R_SQUARED 0.0176, PBLUC_HILL_SLOPE 12.8, PBLUC_R_SQUARED 0.373, read-out: LUCIFERASE INFECTION ASSAY - IC50): 3.29 µM
- IC90: 3.9 µM

SMILES: Cc1ccc2nc(C(F)(F)F)c(C(=O)NCc3cc(Cl)cc(Cl)c3)n2c1
- IC50 [1]: > 8.2 µM
- IC90: > 8.2 µM

SMILES: COc1ccccc1-c1ccc2ncc(-c3ccc(CO)cc3)n2n1
- IC50 [1]: 7.5 µM
- IC90: > 10 µM

SMILES: Cc1c(C)n(-c2nc3ccccc3s2)c2ncnc(NCCCN(C)C)c12
- IC50 (HEPG2TOX_HILL_SLOPE 12.8, HEPG2TOX_R_SQUARED 0.501, PBLUC_HILL_SLOPE 2.59, PBLUC_R_SQUARED 0.498, read-out: LUCIFERASE INFECTION ASSAY - IC50): 7.19 µM
- IC90: > 8.67 µM

SMILES: Cc1ccc(C)c(CN2CCC3(CC2)C(=O)N(CCCc2cccnc2)C(=O)N3Cc2ccccc2)c1
- IC50 [1]: 4.38 µM
- IC90: 5.55 µM

SMILES: Nc1nccnc1C(=O)NNC(=O)COc1ccccc1Cc1ccccc1
- IC50 (HEPG2TOX_HILL_SLOPE 1.59, HEPG2TOX_R_SQUARED 0.794, PBLUC_HILL_SLOPE 15.4, PBLUC_R_SQUARED 0.41, read-out: LUCIFERASE INFECTION ASSAY - IC50): 3.18 µM
- IC90: 3.67 µM

SMILES: CCCc1noc(CCC(=O)Nc2nc3cc4c(cc3s2)OCCO4)n1
- IC50 [1]: > 10 µM
- IC90: > 10 µM

SMILES: CCc1ccc(-c2csc(NC(=O)CCc3c(C)nc4nc(SC)nn4c3C)n2)cc1
- IC50 [1]: > 10 µM
- IC90: > 10 µM
